Data published in patent publication US20100204182A1, “ECTONUCLEOTIDASE INHIBITORS” (RHEINISCHE FRIEDRICH-WILHELMS-UNIVERSITAT BONN, priority 2006, published 2010).

Legend:
[1] = molecular target: T1, human NTPDase1 (Homo sapiens, UniProt P49961); assay: NTPDase inhibition assay by capillary electrophoresis (CE), NTPDase1; type: biochemical; conditions: ATP 320 μM; for Ki: CE method, Km 17 μM, read-out: NTPDase1 Ki [μM] ± SEM
T1 sequence (P49961 1-510): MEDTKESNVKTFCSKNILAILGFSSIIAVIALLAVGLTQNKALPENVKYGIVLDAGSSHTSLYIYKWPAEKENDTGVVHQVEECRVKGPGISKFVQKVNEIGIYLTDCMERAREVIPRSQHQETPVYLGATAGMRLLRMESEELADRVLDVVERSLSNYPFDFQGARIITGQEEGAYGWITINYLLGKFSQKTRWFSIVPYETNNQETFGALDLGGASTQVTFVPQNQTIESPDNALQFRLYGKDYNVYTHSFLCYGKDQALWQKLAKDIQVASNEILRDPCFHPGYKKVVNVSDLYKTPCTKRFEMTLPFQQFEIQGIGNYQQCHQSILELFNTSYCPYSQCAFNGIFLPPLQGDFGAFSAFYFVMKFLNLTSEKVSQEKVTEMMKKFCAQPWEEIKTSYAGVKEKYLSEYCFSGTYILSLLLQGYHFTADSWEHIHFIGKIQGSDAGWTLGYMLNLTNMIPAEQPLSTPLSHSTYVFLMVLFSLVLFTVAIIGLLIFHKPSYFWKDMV
Outline: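 Recombinant or native human NTPDase was run with 320 μM ATP in Hepes buffer pH 7.4 (NaCl, KCl, MgCl2, CaCl2) at 37° C for 15 min, stopped by heating at 99° C. Products were quantified by capillary electrophoresis (UV 210 nm, UMP internal standard). IC50 from 6-8 concentrations was converted to Ki by Cheng-Prusoff.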

[2] = molecular target: T2, human NTPDase3 (Homo sapiens, UniProt O75355); assay: NTPDase inhibition assay by capillary electrophoresis (CE), NTPDase3; type: biochemical; conditions: ATP 320 μM; for inhibition at 1000 µM: 1 mM compound; for Ki: CE method, Km 75 μM, read-out: NTPDase3 Ki [μM] ± SEM
T2 sequence (O75355 1-529): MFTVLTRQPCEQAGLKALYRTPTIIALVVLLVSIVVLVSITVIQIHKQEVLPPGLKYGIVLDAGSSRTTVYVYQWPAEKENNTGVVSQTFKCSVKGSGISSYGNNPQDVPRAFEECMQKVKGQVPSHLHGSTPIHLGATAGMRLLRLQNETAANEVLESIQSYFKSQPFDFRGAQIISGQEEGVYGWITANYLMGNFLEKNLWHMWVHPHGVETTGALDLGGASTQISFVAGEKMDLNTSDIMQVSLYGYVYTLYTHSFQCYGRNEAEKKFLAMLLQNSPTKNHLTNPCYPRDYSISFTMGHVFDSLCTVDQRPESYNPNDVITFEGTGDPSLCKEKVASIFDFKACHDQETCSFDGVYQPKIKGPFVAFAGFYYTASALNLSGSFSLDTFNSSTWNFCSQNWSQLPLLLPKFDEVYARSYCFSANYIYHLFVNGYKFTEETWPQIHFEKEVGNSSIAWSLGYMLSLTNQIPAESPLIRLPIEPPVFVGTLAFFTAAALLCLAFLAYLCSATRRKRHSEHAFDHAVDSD
Method: The applied enzyme inhibition assay has been described (Iqbal J, Vollmayer P, Braun N, Zimmermann H, Müller C E. A capillary electrophoresis method for the characterization of ecto-nucleoside triphosphate diphosphohydrolases (NTPDases) and the analysis of inhibitors by in-capillary enzymatic microreaction. Purinergic Signalling 2005, 1, 349-358).
A. CE instrumentation: All experiments were carried out using a P/ACE MDQ capillary electrophoresis system (Beckman Instruments, Fullerton, Calif., USA) equipped with a UV detection system coupled with a diode-array detector (DAD). Data collection and peak area analysis were performed by the P/ACE MDQ software 32 KARAT obtained from Beckman Coulter. The capillary temperature was kept constant at 25° C. The temperature of the sample storing unit was also adjusted to 25° C. The electrophoretic separations were carried out using an eCAP polyacrylamide-coated fused-silica capillary [(30 cm (20 cm effective length)×50 μm internal diameter (I.D.)×360 μm outside diameter (O.D.), obtained from CS-Chromatographie (Langerwehe, Germany)]. The separation was performed using an applied current of −60 μA and a data acquisition rate of 8 Hz. Analytes were detected using direct UV absorbance at 210 nm. The capillary was conditioned by rinsing with water for 2 min and subsequently with buffer (phosphate 50 mM, pH 6.5) for 1 min. Sample injections were made at the cathodic side of the capillary.
B. NTPDase inhibition assay by capillary electrophoresis: Enzyme inhibition assays were carried out at 37° C. in a final volume of 100 μl. The reaction mixture contained 320 μM of ATP (substrate) in reaction buffer. The reaction buffer contained 140 mM NaCl, 5 mM KCl, 1 mM MgCl2, 2 mM CaCl2, and 10 mM Hepes, pH 7.4.
Different concentrations of inhibitors dissolved in DMSO or water (10 μl) were added and the reaction was initiated by the addition of 10 μl of the appropriately diluted recombinant or native human or rat NTPDase enzyme. […] The mixture (final volume 100 μl) was incubated for 15 min and terminated by heating at 99° C. for 4 min. Aliquots of the reaction mixture (50 μl) were then transferred to mini-CE vials and injected into the CE instrument under the conditions described above. 20 μM of UMP was used as internal standard. Inhibition of NTPDase was tested over a range of 6 to 8 concentrations of test compound spanning 3 orders of magnitude to determine K1 values. Each analysis was repeated two times (in triplicates) in two separate experiments. The Cheng-Prusoff equation was used to calculate the K1 values from the IC50 values, determined by the non-linear curve fitting program PRISM® 3.0 (GraphPad, San Diego, Calif., USA). In table 1K, values of selected compounds as inhibitors of human NTPDases are given.

[3] = molecular target: hP2Y4 (Homo sapiens, UniProt P51582); assay: Inhibition of UTP binding at hP2Y4; conditions: read-out: hP2Y4 % inhibition of UTP binding at 100 μM, n = 3, mean ± SEM
Method: In table 2 inhibition data of selected examples at human P2Y receptor subtypes were collected. It can be seen that no compound was identified that inhibited P2Y receptors at high concentrations of 100 μM and 10 μM, respectively.

Sequence of hP2Y4 (P51582 whole entry): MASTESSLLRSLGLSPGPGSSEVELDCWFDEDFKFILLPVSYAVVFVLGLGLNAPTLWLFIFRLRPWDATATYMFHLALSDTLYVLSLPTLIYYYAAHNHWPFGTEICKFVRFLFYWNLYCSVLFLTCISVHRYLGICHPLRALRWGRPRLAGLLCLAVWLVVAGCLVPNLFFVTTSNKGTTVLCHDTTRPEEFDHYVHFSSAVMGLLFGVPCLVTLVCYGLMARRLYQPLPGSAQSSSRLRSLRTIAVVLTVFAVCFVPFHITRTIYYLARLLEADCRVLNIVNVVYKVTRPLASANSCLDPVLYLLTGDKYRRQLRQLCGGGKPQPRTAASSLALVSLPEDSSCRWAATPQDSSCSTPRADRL

SMILES	inhibition at 1000 µM ([1]; 1 mM compound) [%]	Ki [1] [µM]	inhibition at 1000 µM [2] [%]	Ki [2] [µM]	inhibition at 100 µM [3] [%]
CCOP(=O)(Cc1ccc(NC(=O)CNC(=O)[C@H]2O[C@@H](n3ccc(=O)[nH]c3=O)C(O)C2O)cc1)OCC (stereo in doubt) [Compound 2, 4-[2-((2S,3R,4S,5R)-5-(2,4-Dioxo-3,4-dihydropyrimidin-1(2H)-yl)-3,4-dihydroxy-tetrahydrofurane-2-carboxamido)ethaneamido]benzylphosphonic acid diethylester]	50	> 50	0	> 200	–
CCOP(=O)(Cc1ccc(NC(=O)CCNC(=O)[C@H]2O[C@@H](n3ccc(=O)[nH]c3=O)C(O)C2O)cc1)OCC (stereo in doubt) [Compound 3, 4-[3-((2S,3R,4S,5R)-5-(2,4-Dioxo-3,4-dihydropyrimidin-1(2H)-yl)-3,4-di-hydroxy-tetrahydrofurane-2-carboxamido)propaneamido]benzylphosphonic acid diethylester]	–	55.2 ± 2.6	40	> 200	14 ± 6
